pIC50, pKi: −log10 of the molar value. Where two headings read alike, the source gives them in different places.
Tests used:
[1] = molecular target: T1, HDAC1 (Homo sapiens (Human), UniProt Q13547); assay: Caliper HDAC enzymatic endpoint assay, HDAC1; format: biochemical
Experimental: (§1) Substrate A was prepared as 2 mM in DMSO. Its final concentration in the assay for HDACs 1, 2, 3, 6 is 2 μM.
(§2) Below is the HDAC and Substrate concentration used in this assay.

[2] = molecular target: T2, HDAC2 (Homo sapiens (Human), UniProt Q92769); assay: Caliper HDAC enzymatic endpoint assay, HDAC2; format: biochemical
Experimental: as §1, §2

[3] = molecular target: T3, HDAC3 (Homo sapiens (Human), UniProt O15379); assay: Caliper HDAC enzymatic endpoint assay, HDAC3; format: biochemical
T3 sequence (O15379 whole entry): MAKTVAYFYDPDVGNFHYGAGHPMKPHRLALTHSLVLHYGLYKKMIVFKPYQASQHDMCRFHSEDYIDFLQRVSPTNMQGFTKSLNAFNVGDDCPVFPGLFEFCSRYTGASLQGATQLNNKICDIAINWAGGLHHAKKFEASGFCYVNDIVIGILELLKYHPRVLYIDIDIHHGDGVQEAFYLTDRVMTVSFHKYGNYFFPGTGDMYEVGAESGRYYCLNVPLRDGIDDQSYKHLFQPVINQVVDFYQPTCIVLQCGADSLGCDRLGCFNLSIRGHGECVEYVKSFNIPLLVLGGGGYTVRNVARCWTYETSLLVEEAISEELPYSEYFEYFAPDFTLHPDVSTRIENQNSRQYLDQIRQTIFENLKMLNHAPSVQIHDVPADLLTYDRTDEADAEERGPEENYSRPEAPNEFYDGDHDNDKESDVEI
T3 sequence (Q9Y618 395-489 partner): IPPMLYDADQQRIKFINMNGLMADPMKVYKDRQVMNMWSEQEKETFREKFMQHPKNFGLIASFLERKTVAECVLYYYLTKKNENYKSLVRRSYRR
Experimental: as §1, §2

[4] = molecular target: HDAC4 (Homo sapiens (Human), UniProt P56524); assay: Caliper HDAC enzymatic endpoint assay, HDAC4; format: biochemical; conditions: Table 2C; read-out: HDAC4 IC50 after 0 hr preincubation
Experimental: (§3) The Caliper HDAC Assay Buffer (acronym HAB, 1 liter) was prepared as follows:
(§4) Substrate B was prepared as 2 mM in 100% DMSO. Its final concentration in the assay for HDACs 4, 5, 7, 8, 9 is 2 μM.
(§5) LBH was used as quench inhibitor to stop the reaction at the end point.
IC50 values are in micromolar.

[5] = molecular target: HDAC5 (Homo sapiens (Human), UniProt Q9UQL6); assay: Caliper HDAC enzymatic endpoint assay, HDAC5; format: biochemical; conditions: Table 2C; read-out: HDAC5 IC50 after 0 hr preincubation
Chain of HDAC5 (Q9UQL6 whole entry): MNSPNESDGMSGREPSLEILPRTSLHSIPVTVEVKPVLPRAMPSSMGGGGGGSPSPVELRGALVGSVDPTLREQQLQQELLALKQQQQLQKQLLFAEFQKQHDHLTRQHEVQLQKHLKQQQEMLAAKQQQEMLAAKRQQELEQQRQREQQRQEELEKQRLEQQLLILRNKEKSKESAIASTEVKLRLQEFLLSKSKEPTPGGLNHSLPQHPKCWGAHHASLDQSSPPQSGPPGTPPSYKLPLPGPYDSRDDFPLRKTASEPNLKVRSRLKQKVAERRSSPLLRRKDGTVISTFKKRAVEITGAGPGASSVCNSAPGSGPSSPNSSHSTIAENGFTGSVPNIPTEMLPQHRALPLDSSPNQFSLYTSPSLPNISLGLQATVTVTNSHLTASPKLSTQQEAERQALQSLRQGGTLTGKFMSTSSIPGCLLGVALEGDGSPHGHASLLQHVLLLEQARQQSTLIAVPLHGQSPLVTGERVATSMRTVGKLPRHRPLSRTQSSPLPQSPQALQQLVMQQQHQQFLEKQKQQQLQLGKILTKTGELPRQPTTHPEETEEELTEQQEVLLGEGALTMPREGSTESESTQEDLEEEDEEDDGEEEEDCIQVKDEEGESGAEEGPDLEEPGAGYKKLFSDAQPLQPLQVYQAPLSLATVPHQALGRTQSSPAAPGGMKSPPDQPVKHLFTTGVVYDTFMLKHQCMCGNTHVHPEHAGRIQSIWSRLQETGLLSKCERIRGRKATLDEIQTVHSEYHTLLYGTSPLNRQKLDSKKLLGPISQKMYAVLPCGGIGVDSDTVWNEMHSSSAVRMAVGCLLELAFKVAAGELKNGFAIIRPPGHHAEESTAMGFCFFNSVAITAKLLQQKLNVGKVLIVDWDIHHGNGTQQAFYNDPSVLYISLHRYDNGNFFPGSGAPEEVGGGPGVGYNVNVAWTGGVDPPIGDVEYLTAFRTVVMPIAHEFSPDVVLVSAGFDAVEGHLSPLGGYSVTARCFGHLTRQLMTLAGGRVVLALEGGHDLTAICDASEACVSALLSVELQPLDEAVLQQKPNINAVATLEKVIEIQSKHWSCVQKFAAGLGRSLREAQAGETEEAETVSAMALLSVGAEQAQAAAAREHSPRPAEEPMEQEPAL
Experimental: as §3, §4, §5
IC50 values are in micromolar.

[6] = molecular target: HDAC6 (Homo sapiens (Human), UniProt Q9UBN7); assay: Caliper HDAC enzymatic endpoint assay, HDAC6; format: biochemical; conditions: Table 2C; read-out: HDAC6 IC50 after 0 hr preincubation
Experimental: as §1, §2

[7] = molecular target: HDAC7 (Homo sapiens (Human), UniProt Q8WUI4); assay: Caliper HDAC enzymatic endpoint assay, HDAC7; format: biochemical; conditions: Table 2C; read-out: HDAC7 IC50 after 0 hr preincubation
Chain of HDAC7 (Q8WUI4 whole entry): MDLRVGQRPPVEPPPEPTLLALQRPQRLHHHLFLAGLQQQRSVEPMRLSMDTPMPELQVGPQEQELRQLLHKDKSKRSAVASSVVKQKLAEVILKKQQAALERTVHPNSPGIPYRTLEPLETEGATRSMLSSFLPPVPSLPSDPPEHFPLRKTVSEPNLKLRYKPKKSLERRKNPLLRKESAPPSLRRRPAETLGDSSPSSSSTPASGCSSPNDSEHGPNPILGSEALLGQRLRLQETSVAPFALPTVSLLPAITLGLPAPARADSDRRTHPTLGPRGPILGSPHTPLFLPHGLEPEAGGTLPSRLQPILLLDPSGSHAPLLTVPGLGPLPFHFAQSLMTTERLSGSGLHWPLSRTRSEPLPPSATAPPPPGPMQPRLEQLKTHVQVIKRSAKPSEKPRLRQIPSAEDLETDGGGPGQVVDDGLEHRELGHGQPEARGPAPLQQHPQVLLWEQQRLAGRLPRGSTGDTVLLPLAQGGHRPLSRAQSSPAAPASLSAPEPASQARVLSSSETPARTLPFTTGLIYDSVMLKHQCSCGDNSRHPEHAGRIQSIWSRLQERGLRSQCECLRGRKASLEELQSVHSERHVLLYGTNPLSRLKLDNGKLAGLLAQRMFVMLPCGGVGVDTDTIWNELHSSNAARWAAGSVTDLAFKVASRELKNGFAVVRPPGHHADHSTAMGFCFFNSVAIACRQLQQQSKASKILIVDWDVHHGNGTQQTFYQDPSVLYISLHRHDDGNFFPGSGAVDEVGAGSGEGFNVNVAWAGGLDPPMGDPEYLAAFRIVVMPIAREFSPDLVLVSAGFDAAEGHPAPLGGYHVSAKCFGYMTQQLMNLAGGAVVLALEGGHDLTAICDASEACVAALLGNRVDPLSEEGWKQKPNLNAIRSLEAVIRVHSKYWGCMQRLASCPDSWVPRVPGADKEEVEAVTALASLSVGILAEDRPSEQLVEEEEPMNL
Experimental: as §3, §4, §5
IC50 values are in micromolar.

[8] = molecular target: HDAC8 (Homo sapiens (Human), UniProt Q9BY41); assay: Caliper HDAC enzymatic endpoint assay, HDAC8; format: biochemical; conditions: Table 2C; read-out: HDAC8 IC50 after 0 hr preincubation
Chain of HDAC8 (Q9BY41 whole entry): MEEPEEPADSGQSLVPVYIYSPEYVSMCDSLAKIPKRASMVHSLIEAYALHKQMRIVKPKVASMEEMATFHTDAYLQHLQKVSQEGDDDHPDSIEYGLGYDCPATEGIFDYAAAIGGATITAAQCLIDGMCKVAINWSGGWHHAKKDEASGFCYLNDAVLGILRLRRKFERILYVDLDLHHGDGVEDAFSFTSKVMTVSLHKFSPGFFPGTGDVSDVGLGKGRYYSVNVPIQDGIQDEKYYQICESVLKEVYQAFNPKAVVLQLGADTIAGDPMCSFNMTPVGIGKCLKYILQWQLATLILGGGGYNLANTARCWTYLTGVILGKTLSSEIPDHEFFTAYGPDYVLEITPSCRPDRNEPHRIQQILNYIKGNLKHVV
Experimental: as §3, §4, §5
IC50 values are in micromolar.

[9] = molecular target: HDAC9 (Homo sapiens (Human), UniProt Q9UKV0); assay: Caliper HDAC enzymatic endpoint assay, HDAC9; format: biochemical; conditions: Table 2C; read-out: HDAC9 IC50 after 0 hr preincubation
Chain of HDAC9 (Q9UKV0 whole entry): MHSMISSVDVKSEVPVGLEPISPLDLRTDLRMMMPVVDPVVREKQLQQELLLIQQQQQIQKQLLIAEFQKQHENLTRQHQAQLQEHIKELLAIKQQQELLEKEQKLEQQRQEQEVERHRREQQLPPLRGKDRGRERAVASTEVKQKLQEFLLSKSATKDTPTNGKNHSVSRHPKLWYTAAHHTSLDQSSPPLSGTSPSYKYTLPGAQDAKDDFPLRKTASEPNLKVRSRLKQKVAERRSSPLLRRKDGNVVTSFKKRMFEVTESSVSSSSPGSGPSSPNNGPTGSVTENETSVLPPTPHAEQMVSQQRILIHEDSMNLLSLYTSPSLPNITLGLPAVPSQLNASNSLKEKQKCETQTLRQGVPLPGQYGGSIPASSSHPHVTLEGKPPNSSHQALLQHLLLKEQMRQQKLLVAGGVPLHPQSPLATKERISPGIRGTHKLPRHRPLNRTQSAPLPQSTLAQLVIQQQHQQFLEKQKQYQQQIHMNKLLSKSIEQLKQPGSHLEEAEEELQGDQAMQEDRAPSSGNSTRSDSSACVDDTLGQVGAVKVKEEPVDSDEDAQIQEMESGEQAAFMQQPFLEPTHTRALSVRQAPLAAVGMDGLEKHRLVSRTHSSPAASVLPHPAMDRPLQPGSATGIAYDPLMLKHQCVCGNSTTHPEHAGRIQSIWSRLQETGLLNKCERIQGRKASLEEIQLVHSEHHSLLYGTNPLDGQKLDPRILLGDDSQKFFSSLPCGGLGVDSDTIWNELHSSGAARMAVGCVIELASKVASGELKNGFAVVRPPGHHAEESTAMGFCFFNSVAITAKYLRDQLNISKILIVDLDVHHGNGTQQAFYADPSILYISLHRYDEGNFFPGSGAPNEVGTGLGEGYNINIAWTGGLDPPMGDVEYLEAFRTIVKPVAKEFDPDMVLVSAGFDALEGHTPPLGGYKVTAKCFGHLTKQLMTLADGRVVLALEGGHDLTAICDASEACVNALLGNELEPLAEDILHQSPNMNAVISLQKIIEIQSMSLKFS
Experimental: as §3, §4, §5
IC50 values are in micromolar.

[10] = system: human megakaryocyte progenitors; assay: Growth of human megakaryocyte progenitors (surrogate assay for platelet depletion); format: cell-based; conditions: for toxicity to human megakaryocyte progenitors at higher concentrations: particularly at 10 μM and 20 μM
Experimental: Compounds of the invention were evaluated for their effect on the growth of human megakaryocyte progenitors (surrogate assay for platelet depletion). Human CD34+ cells were grown in a collagen-based gel (Megacult-C, Stemcell Technologies). […] 100% indicates no difference in cell viability relative to the DMSO treated cells. […] This is the desired effect.

[11] = molecular target: T2, HDAC2
[12] = molecular target: T1, HDAC1; assay: Kinetics of the inhibition of HDAC1; conditions: for T1/2: HDAC1 residence
Experimental: (§6) HDAC1 inactivation kinetic constant was determined by curve-fitting of the plot to a first-order rate equation.

[13] = molecular target: T1, HDAC1; assay: Binding constant from HDAC1 inactivation kinetics; conditions: HDAC1, values marked *; read-out: Ki (binding constant derived from HDAC1 inactivation kinetics)
Experimental: as §6

[14] = molecular target: T2, HDAC2; assay: Kinetics of the inhibition of HDAC2
[15] = molecular target: T3, HDAC3; assay: Kinetics of the inhibition of HDAC3
[16] = system: HDACs 1, 2, 3, 4, 5, 6, 7, 8, and 9; assay: HDAC selectivity panel (Caliper), isoform selectivity; conditions: from IC50 values
[17] = system: INS-1E cells; assay: Cytokine-induced beta-cell apoptosis, caspase-3 activity assay; format: cell-based, rat; conditions: IL-1β, IFN-γ, TNF-α, 48 hours, 5 μM compound
Experimental: Compounds of the invention were evaluated for their ability to suppress cytokine-induced beta-cell apoptosis and palmitate and/or glucose-induced beta-cell apoptosis by inhibition of HDAC3. Assay protocols were as follows: Cell culture and reagents. […] Recombinant IL-1β, IFN-γ, and TNF-α were purchased from R&D Systems. Palmitate, D-glucose and fatty acids-free low endotoxin BSA were purchased from Sigma. Palmitate was solubilized in 90% ethanol, heated to 60° C. and used 1:100 dilution in media. Caspase-Glo 3/7 was from Promega and 3-(4,5-dimethylthiazol-2-yl)-2,5-diphenyltetrazolium bromide (MTT) was from Calbiochem. Antibodies for HDAC1, HDAC2, HDAC3, pJNK, JNK cleaved caspase-9 and secondary horseradish-peroxidase conjugated goat anti-mouse and anti-rabbit antibodies were from Cell Signaling. Antibody for beta-actin was from Sigma and antibody against CHOP (GADD153) from Abcam. HDAC inhibitors were purchased from Selleck Chemicals or synthesized in-house. Primers were from Integrated DNA Technologies, High Capacity cDNA RT kit and SYBR green master mix were purchased from Applied Biosystems. INS-1E cells were seeded at 5,000 cells/well using a Multidrop Combi (Thermo Labsystems) in white optical 384-well plates (Corning Life Sciences). After overnight incubation, medium was removed and 50 μL RPMI containing the treated compound, 1% FBS and either a combination of cytokines (10 ng/mL IL-1β, 50 ng/mL IFN-γ, 25 ng/mL TNF-α) or 0.5 mM sodium palmitate was added to every well. After two-day treatment, medium was removed and 20 μL Caspase-Glo 3/7 reagent was added. Luminescence was measured after a two-hour incubation using an Envision plate reader (PerkinElmer). […] The rat INS-1E cell line was simultaneously treated for 48 hours with a combination of pro-inflammatory cytokines IL-1β, IFN-γ, and TNF-α, and the indicated test compounds. […] Compound 9, a negative control, had no effect. […] FIGS. 9C and 9D show a dose-response analysis of HDAC inhibition in suppression of cytokine-induced beta-cell apoptosis. […] This could translate to a larger therapeutic window. […]

[18] = Brain and plasma concentration in mice; format: in vivo; conditions: for half-life: mouse, other: injected (site of injection not given)
Experimental: Specifically, mice were injected with a single dose of compound and the concentration of compound was measured in the brain and plasma of mice at 8 time points. The samples were analyzed by LC-MS/MS.

[19] = read-out: HDAC1 IC50 3 h Preinc, Table 2A, 3 h preincubation
[20] = read-out: HDAC2 IC50 3 h Preinc, Table 2A, 3 h preincubation
[21] = read-out: HDAC3 IC50 3 h Preinc, Table 2A, 3 h preincubation
[22] = read-out: HDAC1 IC50 3 h Prein, Table 2, 3 h preincubation
[23] = read-out: HDAC2 IC50 3 h Prein, Table 2, 3 h preincubation
[24] = read-out: HDAC3 IC50 3 h Prein, Table 2, 3 h preincubation
[25] = mice, single dose, Repligen 136 30 mg/kg, Compound 1 10 mg/kg

T1 sequence (Q13547 whole entry): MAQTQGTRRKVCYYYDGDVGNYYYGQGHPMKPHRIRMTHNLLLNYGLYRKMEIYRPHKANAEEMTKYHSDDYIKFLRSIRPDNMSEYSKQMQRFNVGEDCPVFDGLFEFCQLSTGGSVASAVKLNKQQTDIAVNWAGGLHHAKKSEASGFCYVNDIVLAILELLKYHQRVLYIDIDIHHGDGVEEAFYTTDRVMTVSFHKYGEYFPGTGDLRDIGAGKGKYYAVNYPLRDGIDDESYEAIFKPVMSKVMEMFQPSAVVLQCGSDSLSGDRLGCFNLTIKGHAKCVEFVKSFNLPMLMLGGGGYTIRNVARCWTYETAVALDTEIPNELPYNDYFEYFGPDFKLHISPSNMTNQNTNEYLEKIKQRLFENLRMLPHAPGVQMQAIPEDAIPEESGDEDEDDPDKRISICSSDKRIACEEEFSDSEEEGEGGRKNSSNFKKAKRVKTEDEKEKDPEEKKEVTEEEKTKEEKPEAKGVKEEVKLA
T2 sequence (Q92769 whole entry): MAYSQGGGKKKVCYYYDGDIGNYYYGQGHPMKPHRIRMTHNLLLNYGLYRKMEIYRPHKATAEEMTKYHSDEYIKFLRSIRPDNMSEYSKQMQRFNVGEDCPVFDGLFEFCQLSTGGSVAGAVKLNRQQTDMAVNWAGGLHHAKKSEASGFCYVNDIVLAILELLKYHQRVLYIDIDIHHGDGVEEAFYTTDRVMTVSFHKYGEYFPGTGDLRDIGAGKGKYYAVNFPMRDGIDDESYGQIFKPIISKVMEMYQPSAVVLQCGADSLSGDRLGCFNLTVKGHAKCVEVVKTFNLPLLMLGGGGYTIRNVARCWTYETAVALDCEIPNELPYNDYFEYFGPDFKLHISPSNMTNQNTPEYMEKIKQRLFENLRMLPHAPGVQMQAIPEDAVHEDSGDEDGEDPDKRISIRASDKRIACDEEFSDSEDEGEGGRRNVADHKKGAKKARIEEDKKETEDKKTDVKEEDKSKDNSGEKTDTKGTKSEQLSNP

CC(=O)Nc1ccc(C(=O)Nc2cc(-c3ccncc3)ccc2N)cc1 [BRD2492, reference compound]
pIC50 ([1]; read-out: HDAC1 IC50 after 3 hr preincubation, Table 2B): 8.70 | pIC50 ([2]; read-out: HDAC2 IC50 after 3 hr preincubation, Table 2B): 7.72 | pIC50 ([3]; read-out: HDAC3 IC50 after 3 hr preincubation, Table 2B): 5.68 | pIC50 [4]: < 4.48 | pIC50 [5]: < 4.48 | pIC50 [6]: < 4.48 | pIC50 [7]: < 4.48 | pIC50 [8]: < 4.48 | pIC50 [9]: < 4.48 | toxicity to human megakaryocyte progenitors at higher concentrations [10]: highly toxic

CC(=O)Nc1ccc(C(=O)Nc2ccccc2N)cc1 [CI-994, 4-(Acetylamino)-N-(2-aminophenyl)benzamide, reference compound]
effect on megakaryocyte progenitor cell growth at 1 μM ([10]; 1 μM): significant toxic effect on cell growth | toxicity to human megakaryocyte progenitors at higher concentrations [10]: highly toxic | T1/2 [11]: 3.17 h | T1/2 [12]: 1.23 h

Nc1cc(F)ccc1NC(=O)c1ccc(CNc2nccc(-c3cccnc3)n2)cc1 [Cmpd 2A, reference compound]
pIC50 [1, 19]: 7.92 | pIC50 [2, 20]: 7.74 | pIC50 [3, 21]: 7.77

Nc1ccccc1NC(=O)c1ccc(CNC(=O)/C=C/c2cccnc2)cc1 [Cmpd 3A, reference compound]
pIC50 [1, 19]: 8.40 | pIC50 [2, 20]: 7.64 | pIC50 [3, 21]: 7.66

Nc1cc(F)ccc1NC(=O)c1ccc(CNC(=O)OCc2cccnc2)cc1 [Compound 1A, reference compound]
KI (inactivation) [13]: 160 nM | pIC50 [1, 19]: 6.92 | pIC50 ([1]; read-out: HDAC1 IC50 @3 hr, 3 hr preincubation): 6.92 | pIC50 [2, 20]: 6.80 | pIC50 ([2]; read-out: HDAC2 IC50 @3 hr, 3 hr preincubation): 6.80 | pIC50 [3, 21]: 7.44 | pIC50 ([3]; read-out: HDAC3 IC50 @3 hr, 3 hr preincubation): 7.44 | koff [12]: > 0.00333 s⁻¹ | Kon ([12]; HDAC1): 1.000 min^−1, uM^−1 | T1/2 [12]: <0.067 h | pKi [14]: 6.80 | koff [14]: 0.000633 s⁻¹ | Kon ([14]; HDAC2): 0.24 min^−1, uM^−1 | T1/2 ([14]; HDAC2 residence): 0.283 h | pKi [15]: 7.03 | koff [15]: 0.000147 s⁻¹ | loss in potency for HDAC3 (Ki) compared to MS-275 [15]: 8 fold | Kon ([15]; HDAC3): 0.093 min^−1, uM^−1 | T1/2 ([15]; HDAC3 residence): 1.32 h | less selective than compound 1 ([15]; Ki selectivity HDAC3 versus HDAC1 and 2): 100 fold | binding selectivity (Ki) for HDAC3 versus HDAC1 ([15]; thermodynamic (Ki)): 1.7 fold | binding selectivity (Ki) for HDAC3 versus HDAC2 ([15]; thermodynamic (Ki)): 1.7 fold

CC(=O)Nc1ccc(C(=O)Nc2ccc(Cl)cc2N)cc1 [Compound 2, 4-acetamido-N-(2-amino-4-chlorophenyl)benzamide]
pIC50 [1, 22]: 5.34 | pIC50 [2, 23]: 4.61 | pIC50 [3, 24]: 5.69

CC(=O)Nc1ccc(C(=O)Nc2c(N)cccc2F)cc1 [Compound 3, 4-acetamido-N-(2-amino-6-fluorophenyl)benzamide]
pIC50 [1, 22]: 5.66 | pIC50 [2, 23]: 5.31 | pIC50 [3, 24]: 6.26 | HDAC isoform selectivity [16]: HDAC3 selective compound

CC(=O)Nc1ccc(C(=O)Nc2cccc(F)c2N)cc1 [Compound 4, 4-acetamido-N-(2-amino-3-fluorophenyl)benzamide]
pIC50 [1, 22]: 5.67 | pIC50 [2, 23]: 5.35 | pIC50 [3, 24]: 6.42 | HDAC isoform selectivity [16]: HDAC3 selective compound

CC(=O)Nc1ccc(C(=O)Nc2cc(Br)ccc2N)cc1 [Compound 5, 4-acetamido-N-(2-amino-5-bromophenyl)benzamide]
pIC50 [1, 22]: 5.76 | pIC50 [2, 23]: 5.45 | pIC50 [3, 24]: 6.52

CC(=O)Nc1ccc(C(=O)Nc2ccc(F)cc2N)c(F)c1 [Compound 6, 4-acetamido-N-(2-amino-4-fluorophenyl)-2-fluorobenzamide]
pIC50 [1, 22]: 5.86 | pIC50 [2, 23]: 5.51 | pIC50 [3, 24]: 7.10 | HDAC isoform selectivity [16]: HDAC3 selective compound

Nc1cc(F)ccc1NC(=O)c1ccccc1 [Compound 7, N-(2-amino-4-fluorophenyl)benzamide]
pIC50 [1, 22]: 5.10 | pIC50 [2, 23]: 4.90 | pIC50 [3, 24]: 6.38 | HDAC isoform selectivity [16]: HDAC3 selective compound

Nc1cc(F)ccc1NC(=O)c1ccc(F)cc1 [Compound 8, N-(2-amino-4-fluorophenyl)-4-fluorobenzamide]
pIC50 [1, 22]: 5.08 | pIC50 [2, 23]: 4.93 | pIC50 [3, 24]: 6.36 | HDAC isoform selectivity [16]: HDAC3 selective compound

CC(=O)Nc1ccc(C(=O)Nc2ccc(C)cc2N)cc1 [Compound 9, 4-acetamido-N-(2-amino-4-methylphenyl)benzamide]
pIC50 [1, 22]: < 4.48 | pIC50 [2, 23]: < 4.48 | pIC50 [3, 24]: < 4.48 | pIC50 [4]: < 4.48 | pIC50 [5]: < 4.48 | pIC50 [6]: < 4.48 | pIC50 [7]: < 4.48 | pIC50 [8]: < 4.48 | pIC50 [9]: < 4.48 | suppression of cytokine-induced beta-cell apoptosis (caspase activity) [17]: no effect | effect on growth and viability of human megakaryocyte progenitor cells ([10]; 0.1, 1, 10 and 20 μM, relative to DMSO treated cells): no significant effect on growth and viability

CC(=O)Nc1ccc(C(=O)Nc2ccc(C(F)(F)F)cc2N)cc1 [Compound 10, 4-acetamido-N-(2-amino-4-(trifluoromethyl)phenyl)benzamide]
pIC50 [1, 22]: < 4.48 | pIC50 [2, 23]: < 4.48 | pIC50 [3, 24]: < 4.48

CC(=O)Nc1ccc(C(=O)Nc2cc(F)ccc2N)cc1 [Compound 11, 4-acetamido-N-(2-amino-5-fluorophenyl)benzamide]
pIC50 [1, 22]: 6.82 | pIC50 [2, 23]: 6.32 | pIC50 [3, 24]: 6.97

CC(=O)Nc1ccc(C(=O)Nc2ccccc2N)c(F)c1 [Compound 12, 4-acetamido-N-(2-aminophenyl)-2-fluorobenzamide]
pIC50 [1, 22]: 7.05 | pIC50 [2, 23]: 6.52 | pIC50 [3, 24]: 7.08

Nc1ccccc1NC(=O)c1ccc(CNC(=O)OCc2cccnc2)cc1 [MS-275, reference compound]
T1/2 [11]: 1.05 h | T1/2 [12]: 1.77 h

Cc1ccc(C(=O)NCCCCCC(=O)Nc2ccc(F)cc2N)cc1 [Repligen 136, N-(6-(2-amino-4-fluorophenylamino)-6-oxohexyl)-4-methylbenzamide, reference compound]
AUC Brain [18, 25]: 0.32 µM·h | Cmax Brain [18, 25]: 370 nM | concentration in the brain over time [18, 25]: not measurable after 2 hours | half-life ([18]; brain, read-out: T1/2 Brain (converted)): 0.34 h | half-life ([18]; plasma, read-out: T1/2 Plasma (converted)): 1.38 h

From US11377423B2, “Inhibitors of histone deacetylase” (The Broad Institute, Inc., priority 2012, dated 2022)
